Measured values reported in US12226387B2, “Compounds for use in cancer cachexia” (priority 2018, dated 2025).
Read-outs that look alike come from different tables or passages of the source.

How the values were obtained:
C26 tumour-bearing mice [1] = assay: Survival experiment in C26 tumour-bearing mice on ketone-ester diet; type: in vivo, Male Balb/c mice; conditions: ketone groups (KETrest+KETex) vs control groups, 4.5% ketone ester diet, p<0.01
Description: Animal housing and husbandry—Male Balb/c mice were obtained at 11 weeks of age and housed in polycarbonate cages on a 6:00 am to 6:00 pm light cycle under controlled room temperature (21-23° C.) and humidity (40-60%). Mice were individually housed to allow assessment of individual energy intake and physical activity parameters. Cages contained spruce particles (Lignocel® BK 8/15) bedding, and were changed every three weeks. Enrichment was provided by two cotton pellets, which were replaced during cage changing. Mice received one wooden stick to allow correct wearing off of their teeth while on the liquid diets. Solid food was provided in a recess of the metal wire lid at the top of the cage, whilst liquid diets were provided on a daily basis by means of feeding tubes (Bio-Serv™, catalog #14-726-518). Water was provided by a centralized system with a metal dispenser extending into the cage. All procedures were approved by the Animal Ethics Committee of KU Leuven, Belgium (P093/2017). […]
General study protocol and dietary interventions—Mice were individually housed and received ad libitum access to standard chow (Ssniff® R/M-H, Soest, Germany) prior to the start of the study. Food intake was registered and body weight was measured daily for 5 days to assess their normal rate of food intake. […]

C26 tumour-bearing mice [2] = assay: Food intake and body weight of C26 tumour-bearing mice; type: in vivo, Male Balb/c mice; conditions: all experimental groups
Description: General study protocol and dietary interventions—Mice were individually housed and received ad libitum access to standard chow (Ssniff® R/M-H, Soest, Germany) prior to the start of the study. Food intake was registered and body weight was measured daily for 5 days to assess their normal rate of food intake. Following this baseline follow-up period, the mice were matched for body weight and food intake where after they were randomly assigned to five experimental groups: i) C26 tumour-bearing mice at rest on control diet (CONrest), ii) C26-bearing mice at rest on ketone diet (KETrest), iii) C26-bearing mice performing voluntary wheel running (WR) on control diet (CONex), iv) C26-bearing mice performing WR on ketone diet (KETex), and v) healthy mice at rest on control diet (WT). Mice were habituated to their experimental diet by a step-wise change of their food supply.
During the first three days, the mice received both their experimental liquid diet (without the addition of ketones) as well as standard chow. From day 3 to 6, mice received only their experimental liquid diets (i.e. 0% KET or CON diet). […]
Body weight, food intake and wheel running parameters—Body weight was measured every 3 days during the food training period. After tumour induction, body weight was measured at 4-day intervals. Food intake and wheel running parameters were measured daily.

[3] = Blood metabolite concentrations (βHB, glucose), 1-hr postprandial; type: in vivo, Male Balb/c mice; conditions: at all times
Description: Blood metabolite concentrations-Blood parameters were measured 1-hr postprandial, every 3 days during the food habituation period, and every 4 days from the day of tumour induction. Blood βHB and glucose levels were measured using the Glucomen Lx plus-meter (Menarini Diagnostics, Firenze, Italy) with Lx β-ketone or Lx glucose strips, respectively. The detection limits for p-hydroxybutyrate were 0.1 to 8.0 millimolar (mM). Blood lactate concentrations were assessed using the Lactate-[…] monitoring system (Arkray, Kyoto, Japan). Measurements were performed according to the manufacturer's instructions.

C26 tumour-bearing mice [4] = assay: Voluntary wheel running activity; type: in vivo, Male Balb/c mice; conditions: KETex, wheel running on ketone ester diet, mean±SEM
Description: Tumour induction and exercise intervention—On day 12, tumour-xenografts were induced by interscapular injection of 5×10^5 murine colon carcinoma C26 cells dissolved in 100 μl of phosphate-buffered saline (PBS). C26 cell line was cultured in DMEM (Thermo Fisher Scientific, 41965-062) supplemented with 10% foetal bovine serum (FBS), 1% glutamine (Sigma G7513) and 1% penicillin and streptomycin. WT mice were injected with an identical volume of PBS. Twenty four hours before tumour inoculation, WR mice (CONex and KETex) received a running wheel to induce voluntary exercise, as previously reported in Coletti D et al;. Substrains of inbred mice differ in their physical activity as a behavior. Sci World J 2013: 1-7, 2013. Each wheel was supplied with a commercial cycling computer (2Cycle, 81488) to record physical activity parameters (i.e. running time, distance, and speed). Body weight, food intake and wheel running parameters—Body weight was measured every 3 days during the food training period. After tumour induction, body weight was measured at 4-day intervals. Food intake and wheel running parameters were measured daily. Statistical analysis—Data are presented as mean±SEM. […] Mice from the WT groups were not included in the 2-way ANOVA model, but were added as a reference. Differences in wheel running activity were assessed using an unpaired t-test. […]

[5] = tested on: murine colon carcinoma C26 cells; assay: Tumour weights, C26 tumour-xenografts; type: in vivo, Male Balb/c mice; conditions: 16 days after C26 inoculation, KET mice, p<0.05 vs CON, mean±SEM
Description: Tumour induction and exercise intervention—On day 12, tumour-xenografts were induced by interscapular injection of 5×10^5 murine colon carcinoma C26 cells dissolved in 100 μl of phosphate-buffered saline (PBS). C26 cell line was cultured in DMEM (Thermo Fisher Scientific, 41965-062) supplemented with 10% foetal bovine serum (FBS), 1% glutamine (Sigma G7513) and 1% penicillin and streptomycin. WT mice were injected with an identical volume of PBS. Twenty four hours before tumour inoculation, WR mice (CONex and KETex) received a running wheel to induce voluntary exercise, as previously reported in Coletti D et al;. Substrains of inbred mice differ in their physical activity as a behavior. Sci World J 2013: 1-7, 2013. Each wheel was supplied with a commercial cycling computer (2Cycle, 81488) to record physical activity parameters (i.e. running time, distance, and speed). Behavioural testing and tissue collection experiment—In a second experiment, 9 mice were included in each experimental group and used for behavioural testing and tissue collection. Mice were euthanized 16 days following PBS or tumour cells inoculation. Twenty-four hours before sacrifice the running wheels were removed to eliminate potential acute effects of exercise on variables measured.

C26 tumour-bearing mice [6] = assay: Muscle weights (TA, QUAD, GAS); type: in vivo, Male Balb/c mice
Description: Behavioural testing and tissue collection experiment—In a second experiment, 9 mice were included in each experimental group and used for behavioural testing and tissue collection. Mice were euthanized 16 days following PBS or tumour cells inoculation. Twenty-four hours before sacrifice the running wheels were removed to eliminate potential acute effects of exercise on variables measured.

C26 tumour-bearing mice [7] = assay: Grip strength of forelimbs and hindlimbs; type: in vivo, Male Balb/c mice; conditions: day 16, KETrest & KETex vs CONrest & CONex, p<0.05
Description: Grip strength—Grip strength of both the forelimbs and the hindlimbs was evaluated, at baseline (day 5) and every 4 days starting at tumour induction, by means of a bar and a grid respectively, connected to an isometric force transducer (BIO-GS3 Grip Strength Test, BIOSEB, Pinellas Park, Florida). Mice were lifted by their tail and positioned to grasp the metal bar or grid, and were pulled horizontally until they could no longer hold the grip. Maximal force (g) was registered during five attempts for both the forelimbs and the hindlimbs. Performance was calculated as the average of the three best attempts. Between attempts the mice were returned to their home cage and given a rest period of 3 min.

M. soleus = assay: Ex-vivo muscle contractile properties of M. soleus; type: in vivo, Male Balb/c mice; conditions: on average, KETrest & KETex vs CONrest & CONex, p<0.05
Description: Muscle contractile properties—Ex-vivo muscle contractile properties were assessed as described by Derave W et al; Skeletal muscle properties in a transgenic mouse model for amyotrophic lateral sclerosis: Effects of creatine treatment. Neurobiol Dis 13: 264-272, 2003 and Eijnde B O et al; Effect of muscle creatine content manipulation on contractile properties in mouse muscles. Muscle and Nerve 29: 428-435, 2004.
Mice were anesthetized by an intraperitoneal injection of ketamine-xylazine (10 mg/kg). After dissection of M. soleus and M. extensor digitorum longus (EDL) of both hindlimbs, muscles were mounted vertically on a force transducer (HSE, March-Hugstetten, Germany) and incubated in organ baths containing Krebs-Henseleit solution (118 mM NaCl, 25 mM NaHCO3, 5 mM KCl, 1 mM MgSO4, 1 mM KH2PO4, 2.5 mM CaCl2 and […]). […] Following recovery, resting length (L0) was determined with a micropositioner and an oscilloscope by stimulating the soleus and EDL tetanically for 350 ms at 80 Hz and 120 Hz, respectively, interspersed with 2-min rest intervals. […] Average maximal tension and specific tension (force corrected for muscle cross-sectional area) were calculated for both the twitch and tetanic stimulations. Cross-sectional area was determined by dividing the wet muscle mass by the product of resting muscle length (L0) and the density of mammalian skeletal muscle (1.06 g/cm^3).

[8] = Blood (R)-3-hydroxybutyrate after oral administration of ester
[9] = tested on: pancreatic cancer cachexia; conditions: high amounts of ketone salts; cited from earlier work
[10] = in vivo

## C[C@@H](O)CCOC(=O)C[C@@H](C)O [KET, (R)-3-hydroxybutyl-(R)-3-hydroxybutyrate]
C26 tumour-bearing mice [1]
  increase in mean survival time compared to control groups: +40%
  increase in median survival time compared to control groups: +17%
C26 tumour-bearing mice [2]
  Body weight over time: similarly decreased
[3]
  blood glucose levels compared with CON groups: lower
C26 tumour-bearing mice [4]
  Av distance/day: 19.78 ± 1.36 km
  Av running speed: 2.94 ± 0.12 km/h
[5]
  tumour weights: 204 ± 32 mg
C26 tumour-bearing mice [6]; KET, p<0.05 vs CON, mean±SEM
  Tibialis anterior (TA) weight: 41.6 ± 2.1 mg
C26 tumour-bearing mice [6]; mouse, in vivo
  gastrocnemius (GAS) weights between the groups: similar
C26 tumour-bearing mice [6]; on average
  TA weight higher in KET compared with CON: ~12%
C26 tumour-bearing mice [7]
  forelimb grip strength vs control groups: higher
  hindlimb grip strength vs control groups: higher
M. soleus
  Peak twitch force of M. soleus higher than in control groups: ~45%
  tetanic force of M. soleus higher than in control groups: ~29%
[8]; consumption of a drink
  level of uptake in the gut: surprisingly high
[8]; in vivo
  circulating levels of (R)-3-hydroxybutyrate in the blood: high
  period of raised (R)-3-hydroxybutyrate concentrations compared with ketone salts: longer period

## CC(=O)CC(=O)[O-].[Li+] [lithium acetoacetate]
[9]
  muscle and body weight loss: inhibition
  tumour growth: Reduced

## CC(O)CC(=O)[O-].[Na+] (centres unmarked) [sodium hydroxybutyrate]
[9]
  muscle and body weight loss: inhibition
  tumour growth: Reduced

## (R)-3-hydroxybutyrate-glycerol partial ester
[10]
  circulating levels of (R)-3-hydroxybutyrate in the blood: high
  level of uptake in the gut: surprisingly high
